Measured values: patent US20260055114A1, “IMIDAZO[1,2-B]PYRIDAZINE INHIBITORS OF CYCLIN-DEPENDENT KINASES” (H. LEE MOFFITT CANCER CENTER AND RESEARCH INSTITUTE, INC., priority 2022, published 2026)

Legend:
CDK12 = CDK12 (Homo sapiens, UniProt Q9NYV4); assay: Inhibition of cyclin-dependent kinase 12 (% enzyme activity at 1 uM and IC50); format: biochemical; conditions: for remaining activity at 1 µM: 1 uM compound
MDA-MB-231 cell line = assay: Antiproliferative activity, MDA-MB-231 cell line (GI50); format: cell-based; conditions: Homo sapiens
CCNK = CCNK degradation (DC50, Dmax); format: cell-based; conditions: for Dmax (%): CCNK degradation

Chain of CDK12 (Q9NYV4 whole entry): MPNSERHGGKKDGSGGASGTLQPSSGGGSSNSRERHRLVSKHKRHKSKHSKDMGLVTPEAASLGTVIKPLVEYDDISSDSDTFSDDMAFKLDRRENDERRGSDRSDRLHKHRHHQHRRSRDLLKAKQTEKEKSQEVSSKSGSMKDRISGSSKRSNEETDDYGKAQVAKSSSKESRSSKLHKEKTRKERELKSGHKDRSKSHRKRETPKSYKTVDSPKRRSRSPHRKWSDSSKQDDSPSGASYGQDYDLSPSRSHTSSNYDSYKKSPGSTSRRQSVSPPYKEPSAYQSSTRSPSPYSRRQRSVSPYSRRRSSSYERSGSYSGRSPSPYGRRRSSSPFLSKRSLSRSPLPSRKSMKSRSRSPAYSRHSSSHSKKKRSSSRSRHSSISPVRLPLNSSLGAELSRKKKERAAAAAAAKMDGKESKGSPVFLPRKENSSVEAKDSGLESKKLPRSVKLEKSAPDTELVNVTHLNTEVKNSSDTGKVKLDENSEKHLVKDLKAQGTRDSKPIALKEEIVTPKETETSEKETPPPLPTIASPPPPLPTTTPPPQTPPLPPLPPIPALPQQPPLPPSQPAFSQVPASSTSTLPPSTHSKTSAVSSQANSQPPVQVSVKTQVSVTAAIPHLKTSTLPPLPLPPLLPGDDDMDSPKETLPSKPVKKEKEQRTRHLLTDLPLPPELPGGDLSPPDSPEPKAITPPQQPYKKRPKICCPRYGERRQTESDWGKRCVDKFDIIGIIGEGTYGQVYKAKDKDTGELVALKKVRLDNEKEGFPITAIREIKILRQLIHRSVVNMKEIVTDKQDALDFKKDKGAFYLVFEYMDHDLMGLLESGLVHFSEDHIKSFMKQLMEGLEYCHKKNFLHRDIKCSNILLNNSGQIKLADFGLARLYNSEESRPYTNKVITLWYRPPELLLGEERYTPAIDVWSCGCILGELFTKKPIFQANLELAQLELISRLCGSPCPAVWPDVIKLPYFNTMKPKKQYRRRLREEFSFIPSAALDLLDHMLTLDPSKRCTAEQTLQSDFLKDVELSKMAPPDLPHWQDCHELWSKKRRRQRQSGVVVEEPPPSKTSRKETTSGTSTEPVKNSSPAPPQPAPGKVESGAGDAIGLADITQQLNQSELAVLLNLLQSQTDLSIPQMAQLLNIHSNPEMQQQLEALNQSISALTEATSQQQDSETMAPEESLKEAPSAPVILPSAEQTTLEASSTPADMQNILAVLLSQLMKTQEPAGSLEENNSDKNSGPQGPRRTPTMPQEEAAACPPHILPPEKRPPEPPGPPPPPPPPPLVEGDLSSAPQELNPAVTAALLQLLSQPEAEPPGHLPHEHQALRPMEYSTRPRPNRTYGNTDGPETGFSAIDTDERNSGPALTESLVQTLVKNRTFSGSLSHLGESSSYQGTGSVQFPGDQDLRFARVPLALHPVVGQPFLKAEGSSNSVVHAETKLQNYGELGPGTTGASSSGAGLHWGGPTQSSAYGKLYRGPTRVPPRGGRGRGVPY
Chain of CDK12 (O75909 whole entry partner): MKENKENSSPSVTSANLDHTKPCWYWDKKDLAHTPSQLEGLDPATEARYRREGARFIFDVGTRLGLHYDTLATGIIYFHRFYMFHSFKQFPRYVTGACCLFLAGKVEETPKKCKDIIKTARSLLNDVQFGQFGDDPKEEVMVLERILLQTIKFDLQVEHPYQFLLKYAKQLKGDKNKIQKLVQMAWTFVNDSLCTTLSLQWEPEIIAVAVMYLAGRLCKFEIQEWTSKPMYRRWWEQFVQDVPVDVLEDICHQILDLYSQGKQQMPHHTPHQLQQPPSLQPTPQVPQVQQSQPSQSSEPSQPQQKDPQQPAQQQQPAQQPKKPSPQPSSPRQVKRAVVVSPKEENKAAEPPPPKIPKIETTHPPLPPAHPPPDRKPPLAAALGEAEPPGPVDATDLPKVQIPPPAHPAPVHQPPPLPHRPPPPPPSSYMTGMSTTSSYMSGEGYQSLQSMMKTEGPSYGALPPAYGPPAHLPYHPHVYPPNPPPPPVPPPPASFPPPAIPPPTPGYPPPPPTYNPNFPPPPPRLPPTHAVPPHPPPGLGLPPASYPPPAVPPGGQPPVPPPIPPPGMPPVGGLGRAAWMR

| Compound | remaining activity at 1 µM (CDK12) [%] | GI50 (MDA-MB-231 cell line) [nM] | DC50 (CCNK) [nM] | Dmax (%) (CCNK) | IC50 (CDK12) [nM] |
| --- | --- | --- | --- | --- | --- |
| CN1CCN(c2cc(NCc3nc4c(F)c(F)ccc4[nH]3)c3ncc(-c4cnn(C5CC5)c4)n3n2)CC1 [Cmpd 38, 3-(1-cyclopropyl-1H-pyrazol-4-yl)-N-((4,5-difluoro-1H-benzo[d]imidazol-2-yl)methyl)-6-(4-methylpiperazin-1-yl) imidazo[1,2-b]pyridazin-8-amine] | 53 | 5430 | 1600 | 65 |  |
| Fc1ccc2[nH]c(CNc3cc(N4CCOCC4)nn4c(-c5cnn(C6CC6)c5)cnc34)nc2c1F [Cmpd 39, 3-(1-cyclopropyl-1H-pyrazol-4-yl)-N-((4,5-difluoro-1H-benzo[d]imidazol-2-yl)methyl)-6-morpholinoimidazo[1,2-b]pyridazin-8-amine] | 61 | 10000 | 920 | 80 |  |
| CN1CCN(c2cc(NCc3nc4cc(Cl)c(Cl)cc4[nH]3)c3ncc(-c4cnn(C(F)F)c4)n3n2)CC1 [Cmpd 41, N-((5,6-dichloro-1H-benzo[d]imidazol-2-yl)methyl)-3-(1-(difluoromethyl)-1H-pyrazol-4-yl)-6-(4-methylpiperazin-1-yl) imidazo[1,2-b]pyridazin-8-amine] |  | 247 | 470 | 100 | 1000 |
| FC(F)n1cc(-c2cnc3c(NCc4nc5cc(Cl)c(Cl)cc5[nH]4)cc(N4CCOCC4)nn23)cn1 [Cmpd 42, N-((5,6-dichloro-1H-benzo[d]imidazol-2-yl)methyl)-3-(1-(difluoromethyl)-1H-pyrazol-4-yl)-6-morpholinoimidazo[1,2-b]pyridazin-8-amine] |  | 127 | 180 | 100 | 36 |
| FC(F)n1cc(-c2cnc3c(NCc4nc5cc(Cl)c(Cl)cc5[nH]4)cc(N4CCNCC4)nn23)cn1 [Cmpd 43, N-((5,6-dichloro-1H-benzo[d]imidazol-2-yl)methyl)-3-(1-(difluoromethyl)-1H-pyrazol-4-yl)-6-(piperazin-1-yl) imidazo[1,2-b]pyridazin-8-amine] |  | 49 | 150 | 100 | 292 |
| NC1CCN(c2cc(NCc3nc4cc(Cl)c(Cl)cc4[nH]3)c3ncc(-c4cnn(C(F)F)c4)n3n2)C1 (stereo not shown) [Cmpd 44, 6-(3-aminopyrrolidin-1-yl)-N-((5,6-dichloro-1H-benzo[d]imidazol-2-yl)methyl)-3-(1-(difluoromethyl)-1H-pyrazol-4-yl) imidazo[1,2-b]pyridazin-8-amine] |  | 154 | 440 | 100 | 1420 |
| NC1CCN(c2cc(NCc3nc4cc(Cl)c(Cl)cc4[nH]3)c3ncc(-c4cnn(C(F)F)c4)n3n2)CC1 [Cmpd 45, 6-(4-aminopiperidin-1-yl)-N-((5,6-dichloro-1H-benzo[d]imidazol-2-yl)methyl)-3-(1-(difluoromethyl)-1H-pyrazol-4-yl) imidazo[1,2-b]pyridazin-8-amine] |  | 365 | 1200 | 100 | 567 |
| CN1CCC(Nc2cc(NCc3nc4cc(Cl)c(Cl)cc4[nH]3)c3ncc(-c4cnn(C(F)F)c4)n3n2)CC1 [Cmpd 46, N8-((5,6-dichloro-1H-benzo[d]imidazol-2-yl)methyl)-3-(1-(difluoromethyl)-1H-pyrazol-4-yl)-N6-(1-methylpiperidin-4-yl) imidazo[1,2-b]pyridazine-6,8-diamine] |  | 25 | 180 | 100 | 68 |
| CC1(C)CN(c2cc(NCc3nc4cc(Cl)c(Cl)cc4[nH]3)c3ncc(-c4cnn(C(F)F)c4)n3n2)CCN1 [Cmpd 47, N-((5,6-dichloro-1H-benzo[d]imidazol-2-yl)methyl)-3-(1-(difluoromethyl)-1H-pyrazol-4-yl)-6-(3,3-dimethylpiperazin-1-yl) imidazo[1,2-b]pyridazin-8-amine] |  | 7 | 30 | 100 | 18 |
| CC1(C)CN(c2cc(NCc3nc4cc(Cl)c(Cl)cc4[nH]3)c3ncc(-c4cnn(C(F)F)c4)n3n2)CCO1 [Cmpd 48, N-((5,6-dichloro-1H-benzo[d]imidazol-2-yl)methyl)-3-(1-(difluoromethyl)-1H-pyrazol-4-yl)-6-(2,2-dimethylmorpholino) imidazo[1,2-b]pyridazin-8-amine] |  | 130 | 200 | 100 | 2440 |
| CN1CCN(c2cc(NCc3nc4c(F)cccc4[nH]3)c3ncc(-c4cnn(C(F)F)c4)n3n2)CC1 [Cmpd 51, 3-(1-(difluoromethyl)-1H-pyrazol-4-yl)-N-((4-fluoro-1H-benzo[d]imidazol-2-yl)methyl)-6-(4-methylpiperazin-1-yl) imidazo[1,2-b]pyridazin-8-amine] | 55 | 5130 | 1900 | 50 |  |
| Fc1cccc2[nH]c(CNc3cc(N4CCOCC4)nn4c(-c5cnn(C(F)F)c5)cnc34)nc12 [Cmpd 52, 3-(1-(difluoromethyl)-1H-pyrazol-4-yl)-N-((4-fluoro-1H-benzo[d]imidazol-2-yl)methyl)-6-morpholinoimidazo[1,2-b]pyridazin-8-amine] | 23 | 390 | 30 | 80 | 359 |
| CN1CCN(c2cc(NCc3nc4c(F)c(F)ccc4[nH]3)c3ncc(-c4cnn(C(F)F)c4)n3n2)CC1 [Cmpd 54, N-((4,5-difluoro-1H-benzo[d]imidazol-2-yl)methyl)-3-(1-(difluoromethyl)-1H-pyrazol-4-yl)-6-(4-methylpiperazin-1-yl) imidazo[1,2-b]pyridazin-8-amine] |  | 440 | 110 | 85 | 175 |
| Fc1ccc2[nH]c(CNc3cc(N4CCOCC4)nn4c(-c5cnn(C(F)F)c5)cnc34)nc2c1F [Cmpd 55, N-((4,5-difluoro-1H-benzo[d]imidazol-2-yl)methyl)-3-(1-(difluoromethyl)-1H-pyrazol-4-yl)-6-morpholinoimidazo[1,2-b]pyridazin-8-amine] |  | 472 | 70 | 80 | 283 |
| Cc1ccnc2[nH]c(CNc3cc(N4CCN(C)CC4)nn4c(-c5cnn(C(F)F)c5)cnc34)nc12 [Cmpd 57, 3-(1-(difluoromethyl)-1H-pyrazol-4-yl)-N-((7-methyl-3H-imidazo[4,5-b]pyridin-2-yl)methyl)-6-(4-methylpiperazin-1-yl) imidazo[1,2-b]pyridazin-8-amine] |  | 419 | 240 | 65 | 54 |
| Cc1ccnc2[nH]c(CNc3cc(N4CCOCC4)nn4c(-c5cnn(C(F)F)c5)cnc34)nc12 [Cmpd 58, 3-(1-(difluoromethyl)-1H-pyrazol-4-yl)-N-((7-methyl-3H-imidazo[4,5-b]pyridin-2-yl)methyl)-6-morpholinoimidazo[1,2-b]pyridazin-8-amine] |  | 406 | 260 | 100 | 65 |
| CN1CCN(c2cc(NCc3nc4cc(Cl)c(Cl)cc4[nH]3)c3ncc(-c4cn[nH]c4)n3n2)CC1 [Cmpd 60, N-((5,6-dichloro-1H-benzo[d]imidazol-2-yl)methyl)-6-(4-methylpiperazin-1-yl)-3-(1H-pyrazol-4-yl) imidazo[1,2-b]pyridazin-8-amine] |  | 284 | 1400 | 100 | 907 |
| Clc1cc2nc(CNc3cc(N4CCOCC4)nn4c(-c5cn[nH]c5)cnc34)[nH]c2cc1Cl [Cmpd 61, N-((5,6-dichloro-1H-benzo[d]imidazol-2-yl)methyl)-6-morpholino-3-(1H-pyrazol-4-yl) imidazo[1,2-b]pyridazin-8-amine] |  | 235 | 590 | 100 | 1320 |
| CN1CCN(c2cc(NCc3nc4cc(Cl)c(Cl)cc4[nH]3)c3ncc(-c4ccsc4)n3n2)CC1 [Cmpd 63, N-((5,6-dichloro-1H-benzo[d]imidazol-2-yl)methyl)-6-(4-methylpiperazin-1-yl)-3-(thiophen-3-yl) imidazo[1,2-b]pyridazin-8-amine] |  | 78 | 180 | 100 | 2010 |
| Clc1cc2nc(CNc3cc(N4CCOCC4)nn4c(-c5ccsc5)cnc34)[nH]c2cc1Cl [Cmpd 64, N-((5,6-dichloro-1H-benzo[d]imidazol-2-yl)methyl)-6-morpholino-3-(thiophen-3-yl) imidazo[1,2-b]pyridazin-8-amine] |  | 168 | 340 | 100 | 4250 |
| CN1CCN(c2cc(NCc3nc4cccc(Cl)c4[nH]3)c3ncc(-c4ccsc4)n3n2)CC1 [Cmpd 66, N-((7-chloro-1H-benzo[d]imidazol-2-yl)methyl)-6-(4-methylpiperazin-1-yl)-3-(thiophen-3-yl) imidazo[1,2-b]pyridazin-8-amine] |  | 180 | 80 | 85 | 90 |
| Clc1cccc2nc(CNc3cc(N4CCOCC4)nn4c(-c5ccsc5)cnc34)[nH]c12 [Cmpd 67, N-((7-chloro-1H-benzo[d]imidazol-2-yl)methyl)-6-morpholino-3-(thiophen-3-yl) imidazo[1,2-b]pyridazin-8-amine] |  | 207 | 80 | 85 | 300 |
| Clc1cccc2nc(CNc3cc(N4CCNCC4)nn4c(-c5ccsc5)cnc34)[nH]c12 [Cmpd 68, N-((7-chloro-1H-benzo[d]imidazol-2-yl)methyl)-6-(piperazin-1-yl)-3-(thiophen-3-yl) imidazo[1,2-b]pyridazin-8-amine] |  | 33 | 10 | 90 | 65 |
| NC1CCN(c2cc(NCc3nc4cccc(Cl)c4[nH]3)c3ncc(-c4ccsc4)n3n2)C1 (stereo not shown) [Cmpd 69, 6-(3-aminopyrrolidin-1-yl)-N-((7-chloro-1H-benzo[d]imidazol-2-yl)methyl)-3-(thiophen-3-yl) imidazo[1,2-b]pyridazin-8-amine] |  | 92 | 150 | 85 | 57 |
